What is called IC50 is the concentration at which inhibition is half-maximal.

25 molecules from patent publication US20200069691A1, “HETEROCYCLIC COMPOUNDS AS HIV PROTEASE INHIBITORS” (Merck Sharp & Dohme Corp., priority 2016, published 2020) can be followed below.

For this test, the target named is T1, wild-type HIV-1 protease (Human immunodeficiency virus type 1 group M subtype B, UniProt P04585).
T1 construct: Escherichia coli expressed wild-type HIV-1 protease protein
Nature of the test: Assay for Inhibition of Microbial Expressed HIV Protease (peptide substrate cleavage, LC-MS/MS readout). The format is biochemical. Conditions: E. coli expressed wild-type HIV-1 protease, mean of at least two independent experiments, read-out: HIV Pr Enzyme HIV1 PR IC50. As to the method: Assay for Inhibition of Microbial Expressed HIV Protease
Inhibition of Escherichia coli expressed wild-type HIV-1 protease protein was carried out with a peptide substrate [Val-Ser-Gln-Asn-(βnaphtyl)Ala-Pro-Ile-Val]. The inhibitor compound was preincubated with HIV-1 protease enzyme in assay buffer (50 mM sodium acetate, pH 5.5, 100 mM NaCl, and 0.1% BSA) for 30 minutes at room temperature. Peptide substrate was added to 400 μM in a total volume of 20 μL containing […] HIV-1 protease (final) after which the reaction was incubated for 1 hour at 30° C. […] The extent of inhibition of the reaction was determined from the peak area of the products.
Data shown in the table reflects the mean of at least two independent experiments.
On to `CC(C)CCC1(c2ccc(F)cc2)NC(=N)N(Cc2ccc(C(F)(F)F)c(C(=O)N3Cc4nccnc4C3)c2)C1=O` (stereo not shown) [Compound 146, 3-[3-(5,7-dihydro-6H-pyrrolo[3,4-b]pyrazin-6-ylcarbonyl)-4-(trifluoromethyl)benzyl]-5-(4-fluorophenyl)-2-imino-5-(3-methylbutyl)imidazolidin-4-one], for which the IC50 turned out to be 4.07 nM. Take `CC(C)CCC1(c2ccccc2)NC(=N)N(Cc2cccc(C(=O)N3Cc4ccccc4C3)c2)C1=O` (stereo not shown) [Compound 204, 3-[3-(1,3-dihydro-2H-isoindol-2-ylcarbonyl)benzyl]-2-imino-5-(3-methylbutyl)-5-phenylimidazolidin-4-one]: the IC50 is 7.38 nM. As for `N=C1NC(c2ccccc2)(c2ccccc2)C(=O)N1Cc1ccc(Cl)c(C(=O)N2CCNC(=O)C2)c1` [Compound 380, 4-({2-chloro-5-[(2-imino-5-oxo-4,4-diphenylimidazolidin-1-yl)methyl]phenyl}carbonyl) piperazin-2-one], the figure is 11.2 nM; as for `COC(=O)N1CCN(C(=O)c2ccnc(CN3C(=N)NC(c4ccc(F)cc4)(c4ccc(F)cc4)C3=O)c2)CC1` [Compound 404, methyl 4-[(2-{[4,4-bis(4-fluorophenyl)-2-imino-5-oxoimidazolidin-1-yl]methyl}pyridin-4-yl)carbonyl]piperazine-1-carboxylate], 58.6 nM; as for `CC(C)CCC1(c2ccc(F)cc2)NC(=N)N(Cc2cccc(C(=O)N3Cc4ccccc4C3)c2)C1=O` (stereo not shown) [Compound 229, 3-[3-(1,3-dihydro-2H-isoindol-2-ylcarbonyl)benzyl]-5-(4-fluorophenyl)-2-imino-5-(3-methylbutyl)imidazolidin-4-one], 13.1 nM. As for `N=C1NC(c2ccccc2)(c2ccccc2)C(=O)N1Cc1cccc(C(=O)N2CCc3ccccc32)c1` [Compound 312, 3-[3-(2,3-dihydro-1H-indol-1-ylcarbonyl)benzyl]-2-imino-5,5-diphenylimidazolidin-4-one], the IC50 worked out at 52.1 nM. Consider `COC(=O)N1CCN(C(=O)c2cccc(CN3C(=N)NC(CCC(C)C)(c4cccc(F)c4)C3=O)c2)CC1` (stereo not shown) [Compound 348, methyl 4-[(3-{[4-(3-fluorophenyl)-2-imino-4-(3-methylbutyl)-5-oxoimidazolidin-1-yl]methyl}phenyl)-carbonyl]piperazine-1-carboxylate], for which the IC50 was determined as 84.1 nM.

For the molecule `N=C1NC(c2ccccc2)(c2ccccc2)C(=O)N1Cc1cccc(C(=O)N2CCc3cc(F)ccc3C2)c1` [Compound 308, 3-{3-[(6-fluoro-3,4-dihydroisoquinolin-2(1H)-yl)carbonyl]benzyl}-2-imino-5,5-diphenylimidazolidin-4-one], the IC50 is 49 nM. As for `CCCC1(c2ccccc2)NC(=N)N(Cc2cccc(C(=O)N3Cc4nccnc4C3)c2)C1=O` (stereo not shown) [Compound 278, 3-[3-(5,7-dihydro-6H-pyrrolo[3,4-b]pyrazin-6-ylcarbonyl)benzyl]-2-imino-5-phenyl-5-propylimidazolidin-4-one], the figure is 182 nM.

In the case of `N=C1NC(c2ccc(F)cc2)(c2cccc(C(N)=O)c2)C(=O)N1Cc1cccc(C(=O)N2Cc3ccccc3C2)c1` (stereo not shown) [Compound 294, 3-{1-[3-(1,3-dihydro-2H-isoindol-2-ylcarbonyl)benzyl]-4-(4-fluorophenyl)-2-imino-5-oxoimidazolidin-4-yl}benzamide], the IC50 came out at 39.8 nM. As to `CC(C)CCC1(c2ccccc2)NC(=N)N(Cc2ccc(C(F)(F)F)c(C(=O)N3CCC3)c2)C1=O` (stereo not shown) [Compound 166, 3-[3-(azetidin-1-ylcarbonyl)-4-(trifluoromethyl)benzyl]-2-imino-5-(3-methylbutyl)-5-phenylimidazolidin-4-one], the IC50 was found to be 34.9 nM.

With `CC(C)CCC1(c2cccc(F)c2)NC(=N)N(Cc2cccc(C(=O)N3Cc4nccnc4C3)c2)C1=O` (stereo not shown) [Compound 265, 3-[3-(5,7-dihydro-6H-pyrrolo[3,4-b]pyrazin-6-ylcarbonyl)benzyl]-5-(3-fluorophenyl)-2-imino-5-(3-methylbutyl)imidazolidin-4-one], the IC50 was 24.8 nM. As to `N=C1NC(CCC2CC2)(c2cc(F)cc(F)c2)C(=O)N1Cc1ccc(C(F)(F)F)c(C(=O)N2CCn3c(nnc3C(F)(F)F)C2)c1` (stereo not shown) [Compound 82, 5-(2-cyclopropylethyl)-5-(3,5-difluorophenyl)-2-imino-3-[4-(trifluoromethyl)-3-{[3-(trifluoro-methyl)-5,6-dihydro-[1,2,4]triazolo-[4,3-a]pyrazin-7(8H)-yl]carbonyl}-benzyl]imidazolidin-4-one], the IC50 was determined as 13.1 nM. Turning to `CN(C)c1ncc2c(n1)CN(C(=O)c1cc(CN3C(=N)N[C@](CCCC(F)(F)F)(c4ccc(F)cc4)C3=O)ccc1C(F)(F)F)C2` [Compound 80, (5R)-3-[3-{[2-(dimethylamino)-5,7-dihydro-6H-pyrrolo[3,4-d]pyrimidin-6-yl]carbonyl}-4-(trifluoromethyl)benzyl]-5-(4-fluorophenyl)-2-imino-5-(4,4,4-trifluorobutyl)imidazolidin-4-one], the IC50 was 11.5 nM.

Consider `N=C1NC(c2ccc(F)cc2)(c2ccc(F)cc2)C(=O)N1Cc1cc(C(=O)N2Cc3nccnc3C2)ccn1` [Compound 402, 3-{[4-(5,7-dihydro-6H-pyrrolo[3,4-b]pyrazin-6-ylcarbonvl)pyridin-2-yl]methyl}-5,5-bis(4-fluorophenyl)-2-iminoimidazolidin-4-one], for which the IC50 was 34.2 nM. For `CCOC(=O)NC1CCN(C(=O)c2cc(F)cc(CN3C(=N)NC(c4ccccc4)(c4ccccc4)C3=O)c2)CC1` [Compound 344, ethyl [1-({3-fluoro-5-[(2-imino-5-oxo-4,4-diphenylimidazolidin-1-yl)methyl]phenyl}carbonyl)piperidin-4-yl]carbamate], the IC50 is 81.4 nM. As for `CC(C)CC[C@]1(c2ccc(F)cc2)NC(=N)N(C(CCCc2ccccc2)c2ccc(C(F)(F)F)c(C(=O)N3Cc4nccnc4C3)c2)C1=O` (stereo partly drawn) [Compound 2, (5R)-3-{1-[3-(5,7-dihydro-6H-pyrrolo[3,4-b]pyrazin-6-ylcarbonyl)-4-(trifluoro-methyl)phenyl]-4-phenylbutyl}-5-(4-fluorophenyl)-2-imino-5-(3-methylbutyl)imidazolidin-4-one], the figure is 0.14 nM; as for `CN(C)c1ncnc2c1CN(C(=O)c1cccc(CN3C(=N)NC(c4ccc(F)cc4)(c4ccc(F)cc4)C3=O)c1)C2` [Compound 220, 3-(3-{[4-(dimethylamino)-5,7-dihydro-6H-pyrrolo[3,4-d]pyrimidin-6-yl]carbonyl}benzyl)-5,5-bis(4-fluorophenyl)-2-iminoimidazolidin-4-one], 11 nM; as for `N=C1NC(c2ccc(F)cc2)(c2ccc(F)cc2)C(=O)N1Cc1cccc(C(=O)N2Cc3nccnc3C2)c1` [Compound 200, 3-[3-(5,7-dihydro-6H-pyrrolo[3,4-b]pyrazin-6-ylcarbonyl)benzyl]-5,5-bis(4-fluorophenyl)-2-iminoimidazolidin-4-one], 14.2 nM. Regarding `N=C1N[C@](CCCC(F)(F)F)(c2ccc(F)cc2)C(=O)N1Cc1ccc(C(F)(F)F)c(C(=O)N2CCn3cnnc3C2)c1` [Compound 98, (5R)-3-[3-(5,6-dihydro[1,2,4]triazolo[4,3-a]pyrazin-7(8H)-ylcarbonyl)-4-(trifluoromethyl)benzyl]-5-(4-fluorophenyl)-2-imino-5-(4,4,4-trifluorobutyl)imidazolidin-4-one], the IC50 was determined as 20.7 nM.

Consider `N=C1NC(c2ccc(F)cc2)(c2ccc(F)cc2)C(=O)N1Cc1cncc(C(=O)N2CCC(n3c(=O)[nH]c4ccccc43)CC2)c1` [Compound 392, 1-{1-[(5-{[4,4-bis(4-fluorophenyl)-2-imino-5-oxoimidazolidin-1-yl]methyl}pyridin-3-yl)carbonyl]piperidin-4-yl}-1,3-dihydro-2H-benzimidazol-2-one], for which the IC50 is 61.7 nM.

On to `CN1CCN(C(=O)c2cc(CN3C(=N)NC(c4ccccc4)(c4ccccc4)C3=O)ccc2Cl)CC1=O` [Compound 378, 4-({2-chloro-5-[(2-imino-5-oxo-4,4-diphenylimidazolidin-1-yl)methyl]phenyl}carbonyl)-1-methylpiperazin-2-one], for which the IC50 was 10.6 nM. In the case of `N=C1N[C@](CCCC(F)(F)F)(c2ccc(F)cc2)C(=O)N1Cc1ccc(C(F)(F)F)c(C(=O)N2Cc3cnc(-c4cncnc4)nc3C2)c1` [Compound 49, (5R)-5-(4-fluorophenyl)-2-imino-3-{3-[(2-pyrimidin-5-yl-5,7-dihydro-6H-pyrrolo[3,4-d]pyrimidin-6-yl)carbonyl]-4-(trifluoromethyl)-benzyl}-5-(4,4,4-trifluorobutyl)-imidazolidin-4-one], the IC50 stood at 5.43 nM. Consider `Cc1n[nH]cc1-c1ncc2c(n1)CN(C(=O)c1cc(CN3C(=N)N[C@](CCCC(F)(F)F)(c4ccc(F)cc4)C3=O)ccc1C(F)(F)F)C2` [Compound 27, (5R)-5-(4-fluorophenyl)-2-imino-3-[3-{[2-(3-methyl-1H-pyrazol-4-yl)-5,7-dihydro-6H-pyrrolo[3,4-d]pyrimidin-6-yl]carbonyl}-4-(trifluoromethyl)benzyl]-5-(4,4,4-trifluorobutyl)imidazolidin-4-one], for which the IC50 was found to be 2.88 nM. As for `N=C1NC(c2ccccc2)(c2ccc(-c3ccc(F)cc3)cc2)C(=O)N1Cc1cccc(C(=O)N2Cc3nccnc3C2)c1` (stereo not shown) [Compound 201, 3-[3-(5,7-dihydro-6H-pyrrolo[3,4-b]pyrazin-6-ylcarbonyl)benzyl]-5-(4′-fluorobiphenyl-4-yl)-2-imino-5-phenylimidazolidin-4-one], the figure is 6.32 nM.
